From paper PMC4212090, “The comprehensive analysis of DEG/ENaC subunits in Hydra reveals a large variety of peptide-gated channels, potentially involved in neuromuscular transmission” (BMC Biology, 2014)
Where two headings read alike, the source gives them in different places.

Key:
[1] = system: functional HyNaC heterotrimer; test: Screen of functional HyNaC heterotrimers in Xenopus oocytes for activation by Hydra-RFamides; format: cell-based, Hydra magnipapillata
Procedure: We tested the function of the new HyNaCs by co-expression of different HyNaC subunit combinations in Xenopus oocytes. We screened for functional subunit combinations by application of 5 μM Hydra-RFamide I, a potent agonist of HyNaC2/3/5 [4]. When we expressed an individual HyNaC subunit we could never elicit currents. […] When HyNaC2 was part of the injected cRNA pool, however, Hydra-RFamide I elicited currents. Simultaneous expression of HyNaC2 with a single other HyNaC resulted only in a functional channel when we co-expressed HyNaC2 and HyNaC3; it was already known that HyNaC2 and HyNaC3 form a low-affinity peptide-gated channel.
Dashed line represents the zero current level. Amino acid sequences of Hydra-RFamides I to V are shown at the bottom. HyNaC, Hydra Na^+ channel.
Since Hydra-RFamide II had been shown previously to activate HyNaC2/3/5 [4], we tested Hydra-RFamides II to V for channel activation.
(§1) To study the biophysical properties of the new HyNaCs, cRNA of HyNaCs was synthesized in vitro (mMessage mMachine kit, Ambion, Austin, Texas, USA) and injected into Xenopus laevis oocytes of stage V and VI. After injection, oocytes were incubated for one to two days at 19°C in oocyte Ringer’s solution 2 (OR-2), which contained (in mM): 82.5 NaCl, 2.5 KCl, 1.0 Na2HPO4, 1.0 MgCl2, 1.0 CaCl2, 5.0 HEPES, 0.5 g/l PVP, 1,000 U/l penicillin and 10 mg/l streptomycin, NaOH was used to adjust pH to 7.3. Whole cell currents were recorded from defolliculated oocytes by two-electrode voltage-clamp (TEVC) using the amplifier TurboTec 03X (npi electronic GmbH, Tamm, Germany). Standard bath solution (in mM: 140 NaCl, 10 HEPES, 1.8 CaCl2 and 1.0 MgCl2. NaOH was used to adjust pH to 7.4.) was exchanged by a pump driven system combined with the oocyte testing carousel (OTC), which was controlled by the interface OTC-20 [53]. To control the OTC-20 and to record the data to the hard drive, the software CellWorks (version 5.1.1; npi electronic GmbH, Tamm, Germany) was used. Data were sampled at 0.1 to 1 kHz and filtered at 20 Hz. HyNaCs are permeable for Ca^2+, activating an endogenous CaCC [40]. Therefore, unless otherwise indicated, oocytes were injected with 50 nl of 20 mM EGTA 30 to 180 minutes before measurements. Reversal potentials and Ca^2+ permeabilities of HyNaCs were studied as described previously.

[2] = target: HyNaC2/11/5 (Hydra vulgaris (Hydra magnipapillata), UniProt A0A0A0MP55+A8DZR6+D3UD58); test: Activation of HyNaC2/11/5 expressed in Xenopus oocytes by Hydra-RFamides (TEVC); format: cell-based
HyNaC2/11/5, sequence (A0A0A0MP55 entry or part of it): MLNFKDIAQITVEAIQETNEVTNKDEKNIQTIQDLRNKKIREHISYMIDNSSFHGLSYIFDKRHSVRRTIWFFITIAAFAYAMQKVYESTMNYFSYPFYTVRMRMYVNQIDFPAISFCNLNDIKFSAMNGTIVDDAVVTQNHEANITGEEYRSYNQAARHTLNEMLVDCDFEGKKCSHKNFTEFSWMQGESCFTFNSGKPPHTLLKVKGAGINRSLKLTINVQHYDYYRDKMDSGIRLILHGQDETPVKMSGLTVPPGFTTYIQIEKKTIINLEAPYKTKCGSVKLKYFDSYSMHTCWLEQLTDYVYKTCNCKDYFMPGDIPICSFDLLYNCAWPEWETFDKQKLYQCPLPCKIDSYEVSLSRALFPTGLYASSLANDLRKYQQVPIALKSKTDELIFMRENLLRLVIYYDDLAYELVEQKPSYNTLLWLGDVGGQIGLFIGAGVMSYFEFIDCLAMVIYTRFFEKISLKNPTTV
HyNaC2/11/5, sequence (A8DZR6 entry or part of it): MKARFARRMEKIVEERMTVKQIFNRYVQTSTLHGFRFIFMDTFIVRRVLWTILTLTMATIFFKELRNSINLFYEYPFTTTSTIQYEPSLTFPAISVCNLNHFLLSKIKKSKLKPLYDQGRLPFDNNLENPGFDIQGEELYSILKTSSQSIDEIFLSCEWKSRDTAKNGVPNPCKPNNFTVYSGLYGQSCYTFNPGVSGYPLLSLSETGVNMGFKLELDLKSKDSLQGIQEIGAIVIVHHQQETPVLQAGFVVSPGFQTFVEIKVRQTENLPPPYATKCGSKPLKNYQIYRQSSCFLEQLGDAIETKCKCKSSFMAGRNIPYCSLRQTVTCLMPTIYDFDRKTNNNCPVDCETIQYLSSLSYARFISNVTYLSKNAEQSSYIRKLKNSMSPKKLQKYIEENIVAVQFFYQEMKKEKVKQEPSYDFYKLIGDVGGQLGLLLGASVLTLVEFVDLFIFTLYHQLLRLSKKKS
HyNaC2/11/5, sequence (D3UD58 entry or part of it): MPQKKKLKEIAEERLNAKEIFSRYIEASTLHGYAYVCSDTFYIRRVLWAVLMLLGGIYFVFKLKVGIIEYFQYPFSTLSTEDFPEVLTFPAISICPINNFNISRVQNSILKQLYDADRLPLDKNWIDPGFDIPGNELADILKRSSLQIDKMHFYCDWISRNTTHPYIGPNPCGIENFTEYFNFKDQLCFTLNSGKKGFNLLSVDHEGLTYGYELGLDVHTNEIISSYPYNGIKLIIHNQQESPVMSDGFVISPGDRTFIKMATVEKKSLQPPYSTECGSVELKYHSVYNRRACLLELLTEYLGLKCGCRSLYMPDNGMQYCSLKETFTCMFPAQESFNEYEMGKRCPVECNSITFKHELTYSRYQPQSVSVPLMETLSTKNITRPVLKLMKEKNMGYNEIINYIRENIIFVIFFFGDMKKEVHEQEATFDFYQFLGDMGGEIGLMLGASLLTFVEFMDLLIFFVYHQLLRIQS
Procedure: as §1
(§2) EC50 values for Hydra-RFamides I and II as well as IC50 values for diminazene were determined by fits to the Hill equation using IGOR Pro (version 6.06, WaveMetrics, Inc.). Reversal potentials were defined as the first recorded data point, where currents reversed signs from negative to positive. For I/V relationships, voltage ramps in the absence of the agonist were used to subtract background conductances. Results are reported as mean ± standard error.

[3] = target: HyNaC2/4/6 (Hydra vulgaris (Hydra magnipapillata), UniProt A0A0A0MP54+A8DZR6+A8DZR8); test: Activation of HyNaC2/4/6 expressed in Xenopus oocytes by Hydra-RFamides (TEVC); format: cell-based; details: EGTA-injected oocytes
Procedure: as §1, §2

[4] = target: T1, HyNaC2/3/5 (Hydra vulgaris (Hydra magnipapillata), UniProt A8DZR6+A8DZR7+D3UD58); test: Activation of HyNaC2/3/5 expressed in Xenopus oocytes by Hydra-RFamides (TEVC); format: cell-based; details: EGTA-injected oocytes
T1 sequence (A8DZR6 entry or part of it): as the sequence (A8DZR6 entry or part of it) above
T1 sequence (D3UD58 entry or part of it): as the sequence (D3UD58 entry or part of it) above
T1 sequence (A8DZR7 entry or part of it): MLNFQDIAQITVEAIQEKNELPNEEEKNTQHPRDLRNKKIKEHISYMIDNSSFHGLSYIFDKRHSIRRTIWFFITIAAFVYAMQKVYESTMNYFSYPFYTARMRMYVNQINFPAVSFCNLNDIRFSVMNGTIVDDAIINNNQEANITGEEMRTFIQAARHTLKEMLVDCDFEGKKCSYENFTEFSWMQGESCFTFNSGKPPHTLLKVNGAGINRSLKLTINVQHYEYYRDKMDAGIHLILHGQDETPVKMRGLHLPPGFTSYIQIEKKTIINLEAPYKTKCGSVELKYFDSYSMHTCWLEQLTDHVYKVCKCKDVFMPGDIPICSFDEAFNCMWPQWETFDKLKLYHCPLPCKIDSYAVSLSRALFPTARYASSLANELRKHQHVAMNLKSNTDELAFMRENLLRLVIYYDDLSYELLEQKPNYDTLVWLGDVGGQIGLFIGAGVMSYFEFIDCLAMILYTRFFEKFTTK
Procedure: as §1, §2

[5] = target: T1, HyNaC2/3/5; parameters: method as in PMID 20159980; details: ref [4], cited from earlier work
[6] = system: HyNaC2/9/5; test: Activation of HyNaC2/9/5 in Xenopus oocytes by Hydra-RFamides; format: cell-based, Hydra magnipapillata; details: channel opened by lowering extracellular Ca2+
Procedure: The contribution of the distantly related HyNaC12 to peptide-gated channels was assessed by co-expression with HyNaC2 and one or several other HyNaCs (HyNaC3 to HyNaC11). In addition, HyNaC12 was co-expressed with pools of different HyNaCs without HyNaC2. […] In fact, all HyNaCs that were activated by Hydra-RFamide I were opened by lowering the extracellular Ca^2+ concentration ([Ca^2+]e) to 10 nM (Figure 4). […] Some DEG/ENaCs are constitutively opened by an amino acid substitution at the so-called DEG-position. To further investigate whether HyNaC12 forms a functional homomeric channel, we substituted a glycine at the DEG-position by threonine (G436T), which has a large side chain. This substitution did, however, not constitutively open HyNaC12 (data not shown). This applies also for the co-expression of HyNaC12-G436T together with pools of different wild-type HyNaC subunits, leaving the function of HyNaC12 unknown.
To study the biophysical properties of the new HyNaCs, cRNA of HyNaCs was synthesized in vitro (mMessage mMachine kit, Ambion, Austin, Texas, USA) and injected into Xenopus laevis oocytes of stage V and VI. […] Whole cell currents were recorded from defolliculated oocytes by two-electrode voltage-clamp (TEVC) using the amplifier TurboTec 03X (npi electronic GmbH, Tamm, Germany). […]

[7] = target: HyNaC2/10/7 (Hydra vulgaris (Hydra magnipapillata), UniProt A0A0A0MP61+A0A0A0MP73+A8DZR6); test: Activation of HyNaC2/10/7 expressed in Xenopus oocytes by Hydra-RFamides (TEVC); format: cell-based; details: EGTA-injected oocytes
Procedure: as §1, §2

[8] = target: HyNaC2/3/7 (Hydra vulgaris (Hydra magnipapillata), UniProt A0A0A0MP73+A8DZR6+A8DZR7); test: Activation of HyNaC2/3/7 expressed in Xenopus oocytes by Hydra-RFamides (TEVC); format: cell-based; details: EGTA-injected oocytes
Procedure: as §1, §2

[9] = target: HyNaC2/3/6 (Hydra vulgaris (Hydra magnipapillata), UniProt A0A0A0MP54+A8DZR6+A8DZR7); test: Activation of HyNaC2/3/6 expressed in Xenopus oocytes by Hydra-RFamides (TEVC); format: cell-based; details: EGTA-injected oocytes
Procedure: as §1, §2

[10] = target: HyNaC2/9/7 (Hydra vulgaris (Hydra magnipapillata), UniProt A0A0A0MP48+A0A0A0MP73+A8DZR6); test: Activation of HyNaC2/9/7 expressed in Xenopus oocytes by Hydra-RFamides (TEVC); format: cell-based; details: EGTA-injected oocytes
HyNaC2/9/7, sequence (A0A0A0MP48 entry or part of it): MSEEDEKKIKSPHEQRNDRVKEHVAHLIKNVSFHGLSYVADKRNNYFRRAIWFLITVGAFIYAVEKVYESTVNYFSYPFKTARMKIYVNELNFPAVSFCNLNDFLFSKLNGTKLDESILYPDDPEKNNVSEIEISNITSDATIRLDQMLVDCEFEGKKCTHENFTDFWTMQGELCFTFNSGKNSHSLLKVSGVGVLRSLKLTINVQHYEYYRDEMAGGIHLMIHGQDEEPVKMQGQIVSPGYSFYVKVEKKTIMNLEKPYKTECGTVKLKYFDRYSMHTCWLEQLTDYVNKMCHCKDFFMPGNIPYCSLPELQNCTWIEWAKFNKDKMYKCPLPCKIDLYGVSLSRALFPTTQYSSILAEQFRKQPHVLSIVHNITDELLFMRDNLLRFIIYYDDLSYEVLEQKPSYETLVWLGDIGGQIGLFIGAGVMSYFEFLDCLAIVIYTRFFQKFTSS
HyNaC2/9/7, sequence (A8DZR6 entry or part of it): as the sequence (A8DZR6 entry or part of it) above
HyNaC2/9/7, sequence (A0A0A0MP73 entry or part of it): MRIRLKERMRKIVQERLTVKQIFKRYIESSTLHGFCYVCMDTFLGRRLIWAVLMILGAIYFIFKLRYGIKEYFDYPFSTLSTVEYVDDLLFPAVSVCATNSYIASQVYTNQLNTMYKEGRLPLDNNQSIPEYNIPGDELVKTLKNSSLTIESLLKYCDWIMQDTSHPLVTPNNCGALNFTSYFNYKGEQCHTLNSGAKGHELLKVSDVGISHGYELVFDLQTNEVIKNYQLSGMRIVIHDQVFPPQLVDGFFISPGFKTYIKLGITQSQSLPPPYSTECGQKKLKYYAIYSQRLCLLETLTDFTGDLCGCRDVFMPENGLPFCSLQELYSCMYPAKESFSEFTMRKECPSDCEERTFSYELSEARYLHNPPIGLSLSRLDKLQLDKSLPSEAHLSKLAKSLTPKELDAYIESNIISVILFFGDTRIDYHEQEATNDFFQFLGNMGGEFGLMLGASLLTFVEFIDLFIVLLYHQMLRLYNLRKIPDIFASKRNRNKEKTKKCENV
Procedure: as §1, §2

[11] = target: HyNaC2/3/7 (Hydra magnipapillata)
[12] = target: HyNaC2/4/6 (Hydra magnipapillata)
[13] = target: HyNaC2/3/5 (Hydra magnipapillata)
[14] = target: HyNaC2/3/6 (Hydra magnipapillata)
[15] = target: HyNaC2/11/5 (Hydra magnipapillata)
[16] = target: HyNaC2/10/7 (Hydra magnipapillata)
[17] = target: HyNaC2/9/7 (Hydra magnipapillata)

## Hydra-RFamide II
[1]; data not shown
  activation of channels that were activated by Hydra-RFamide I: also activated
[2]; 0.95 μM compared with 13.8 μM
  apparent affinity for Hydra-RFamide II relative to Hydra-RFamide I: about 15 fold
[2]; EGTA-injected oocytes
  current amplitude at highest agonist concentration (Hydra-RFamide II): 2.2 ± 0.4 μA
[2]; EGTA-injected oocytes, read-out: EC50 for Hydra-RFamide II
  EC50: 0.95 ± 0.16 µM
[3]
  current amplitude at highest agonist concentration (Hydra-RFamide II): 4.7 ± 0.8 μA
[4]
  current amplitude at highest agonist concentration (Hydra-RFamide II): 5.3 ± 1.0 μA
[4]; read-out: EC50 (apparent affinity) for Hydra-RFamide II
  EC50: 1.61 ± 0.27 µM
[5]; oocytes not injected with EGTA, read-out: EC50 (apparent affinity) for Hydra-RFamide II
  EC50: 0.34 ± 0.08 µM
[5]
  apparent affinity for Hydra-RFamide II relative to Hydra-RFamide I: ten times higher
[6]
  activation of HyNaC2/9/5: not activated
[7]
  current amplitude at highest agonist concentration (Hydra-RFamide II): 1.1 ± 0.4 μA
[8]
  current amplitude at highest agonist concentration (Hydra-RFamide II): 11.8 ± 4.0 μA
[9]
  current amplitude at highest agonist concentration (Hydra-RFamide II): 9.2 ± 1.7 μA
[10]
  current amplitude at highest agonist concentration (Hydra-RFamide II): 3.6 ± 1.3 μA
[10]; read-out: EC50 for Hydra-RFamide II
  EC50: 0.04 ± 0.01 µM

## Hydra-RFamide I (peptide)
[11]
  EC50 of current activation by Hydra-RFamide I (two-electrode voltage clamp, Xenopus oocytes injected with EGTA): 0.19 µM
[12]
  EC50 of current activation by Hydra-RFamide I (two-electrode voltage clamp, Xenopus oocytes injected with EGTA): 0.7 µM
[13]
  EC50 of current activation by Hydra-RFamide I (two-electrode voltage clamp, Xenopus oocytes injected with EGTA): 3.48 µM
[14]
  EC50 of current activation by Hydra-RFamide I (two-electrode voltage clamp, Xenopus oocytes injected with EGTA): 0.29 µM
[15]
  EC50 of current activation by Hydra-RFamide I (two-electrode voltage clamp, Xenopus oocytes injected with EGTA): 13.8 µM
[16]
  EC50 of current activation by Hydra-RFamide I (two-electrode voltage clamp, Xenopus oocytes injected with EGTA); saturation not reached: > 30 µM
[17]
  EC50 of current activation by Hydra-RFamide I (two-electrode voltage clamp, Xenopus oocytes injected with EGTA): 0.04 µM

## Hydra-RFamide V
[1]; 5 μM peptide, Xenopus oocytes
  activation of functional HyNaC heterotrimers (current elicited): did not elicit a current
